Laboratory results reported in article PMC5218480 (PLoS ONE, 2017).

Tested on: MV-4-11 cells
Assay: Gene expression microarray analysis (Affymetrix PrimeView) and GSEA
Assay type: cell-based, human
Set-up: RFU PODN (11730768_x_at) / Fold change /veh PODN (11730768_x_at) / RFU LINC00158 (11744669_a_at) / Fold change /veh LINC00158 (11744669_a_at) / RFU DUSP10 (11751237_a_at) / Fold change /veh DUSP10 (11751237_a_at) / RFU ID3 (11757404_x_at) / Fold change /veh ID3 (11757404_x_at) / RFU PLEKHG5 (11737974_s_at) / Fold change /veh PLEKHG5 (11737974_s_at) / RFU LRRC4B (11730491_at) / Fold change /veh LRRC4B (11730491_at) / RFU GIMAP4 (11747438_a_at) / Fold change /veh GIMAP4 (11747438_a_at) / RFU KRT8 (11758183_x_at) / Fold change /veh KRT8 (11758183_x_at) / RFU CNN1 (11734310_a_at) / Fold change /veh CNN1 (11734310_a_at) / RFU VPS37D (11726825_at) / Fold change /veh VPS37D (11726825_at) / RFU C10orf10 (11716522_x_at) / Fold change /veh C10orf10 (11716522_x_at) / RFU KIR2DL2 /// KIR2DL4 /// KIR2DL5A /// KIR2DL5B /// KIR2DS1 /// KIR2DS2 /// KIR2DS3 /// KIR2DS4 /// KIR3DL3 /// KIR3DL3 /// KIR3DS1 (11738374_at) / Fold change /veh KIR2DL2 /// KIR2DL4 /// KIR2DL5A /// KIR2DL5B /// KIR2DS1 /// KIR2DS2 /// KIR2DS3 /// KIR2DS4 /// KIR3DL3 /// KIR3DL3 /// KIR3DS1 (11738374_at) / RFU C1QL1 (11718748_at) / Fold change /veh C1QL1 (11718748_at) / RFU TMPRSS4 (11747572_a_at) / Fold change /veh TMPRSS4 (11747572_a_at) / RFU HAMP (11756126_x_at) / Fold change /veh HAMP (11756126_x_at) / RFU RNFT2 (11725882_a_at) / Fold change /veh RNFT2 (11725882_a_at) / RFU NR4A2 (11747474_a_at) / Fold change /veh NR4A2 (11747474_a_at) / RFU ABCC12 (11746883_a_at) / Fold change /veh ABCC12 (11746883_a_at) / RFU TMEM136 (11760407_x_at) / Fold change /veh TMEM136 (11760407_x_at) / RFU CLDN22 /// WWC2 (11732394_at) / Fold change /veh CLDN22 /// WWC2 (11732394_at) / RFU HLA-DPB1 (11760878_x_at) / Fold change /veh HLA-DPB1 (11760878_x_at) / RFU SPINT1 (11716480_a_at) / Fold change /veh SPINT1 (11716480_a_at) / RFU GAP43 (11754022_s_at) / Fold change /veh GAP43 (11754022_s_at) / RFU A4GNT (11735810_at) / Fold change /veh A4GNT (11735810_at) / RFU PRB3 (11715151_x_at) / Fold change /veh PRB3 (11715151_x_at) / RFU TUBB4B (11761932_at) / Fold change /veh TUBB4B (11761932_at) / RFU CAPN14 (11732068_a_at) / Fold change /veh CAPN14 (11732068_a_at) / RFU TMCC2 (11721928_a_at) / Fold change /veh TMCC2 (11721928_a_at) / RFU IRGQ (11745062_a_at) / Fold change /veh IRGQ (11745062_a_at) / RFU FAM174B (11720279_a_at) / Fold change /veh FAM174B (11720279_a_at) / RFU TMPRSS4 (11748680_a_at) / Fold change /veh TMPRSS4 (11748680_a_at) / RFU FAM212B (11763350_a_at) / Fold change /veh FAM212B (11763350_a_at) / RFU PLEKHG5 (11743358_a_at) / Fold change /veh PLEKHG5 (11743358_a_at) / RFU ZSCAN30 (11745921_a_at) / Fold change /veh ZSCAN30 (11745921_a_at) / RFU CMKLR1 (11741424_a_at) / Fold change /veh CMKLR1 (11741424_a_at) / RFU LOC101060620 /// MAPK8IP1 (11723275_at) / Fold change /veh LOC101060620 /// MAPK8IP1 (11723275_at) / RFU SPTSSB (11747773_x_at) / Fold change /veh SPTSSB (11747773_x_at) / RFU PRSS12 (11739890_at) / Fold change /veh PRSS12 (11739890_at) / RFU BIN1 (11741810_x_at) / Fold change /veh BIN1 (11741810_x_at) / RFU WNT11 (11732464_a_at) / Fold change /veh WNT11 (11732464_a_at) / RFU C10orf10 (11716521_a_at) / Fold change /veh C10orf10 (11716521_a_at) / RFU C5orf56 (11738089_at) / Fold change /veh C5orf56 (11738089_at) / RFU CYB561 (11721691_x_at) / Fold change /veh CYB561 (11721691_x_at) / RFU ANKRD19P (11752326_a_at) / Fold change /veh ANKRD19P (11752326_a_at) / RFU OR2T12 /// OR2T33 /// OR2T8 (11738714_s_at) / Fold change /veh OR2T12 /// OR2T33 /// OR2T8 (11738714_s_at) / RFU VCAN (11748164_a_at) / Fold change /veh VCAN (11748164_a_at) / RFU JSRP1 (11732532_at) / Fold change /veh JSRP1 (11732532_at) / RFU KRTAP10-11 (11738290_x_at) / Fold change /veh KRTAP10-11 (11738290_x_at) / RFU MYO3A (11730013_a_at) / Fold change /veh MYO3A (11730013_a_at) / RFU EBF3 (11725865_a_at) / Fold change /veh EBF3 (11725865_a_at) / RFU CAMK2N1 (11719241_x_at) / Fold change /veh CAMK2N1 (11719241_x_at) / RFU C5orf56 (11738088_a_at) / Fold change /veh C5orf56 (11738088_a_at) / RFU OLFML3 (11715873_a_at) / Fold change /veh OLFML3 (11715873_a_at) / RFU LOC100653217 /// NTM (11731650_a_at) / Fold change /veh LOC100653217 /// NTM (11731650_a_at) / RFU MAPK11 (11762145_a_at) / Fold change /veh MAPK11 (11762145_a_at) / RFU FIZ1 (11724087_x_at) / Fold change /veh FIZ1 (11724087_x_at) / RFU OASL (11726364_x_at) / Fold change /veh OASL (11726364_x_at) / RFU SOX15 (11748057_x_at) / Fold change /veh SOX15 (11748057_x_at) / RFU CD79A (11719716_a_at) / Fold change /veh CD79A (11719716_a_at) / RFU HIST1H1D (11736915_at) / Fold change /veh HIST1H1D (11736915_at) / RFU CASKIN2 (11723855_a_at) / Fold change /veh CASKIN2 (11723855_a_at) / RFU LOC730098 (11760151_x_at) / Fold change /veh LOC730098 (11760151_x_at) / RFU OR4N2 (11742367_at) / Fold change /veh OR4N2 (11742367_at) / RFU PRRT2 (11749266_a_at) / Fold change /veh PRRT2 (11749266_a_at) / RFU SNX32 (11753110_a_at) / Fold change /veh SNX32 (11753110_a_at) / RFU CDHR5 (11726645_a_at) / Fold change /veh CDHR5 (11726645_a_at) / RFU RCAN1 (11760418_a_at) / Fold change /veh RCAN1 (11760418_a_at) / RFU FAM167A (11723789_a_at) / Fold change /veh FAM167A (11723789_a_at) / RFU FAM26E (11764081_at) / Fold change /veh FAM26E (11764081_at) / RFU ISYNA1 (11749810_s_at) / Fold change /veh ISYNA1 (11749810_s_at) / RFU ACY1 (11761880_at) / Fold change /veh ACY1 (11761880_at) / RFU 11764098_at / Fold change /veh 11764098_at / RFU SAMD14 (11745864_x_at) / Fold change /veh SAMD14 (11745864_x_at) / RFU NPB (11741838_a_at) / Fold change /veh NPB (11741838_a_at) / RFU TMPRSS6 (11731388_a_at) / Fold change /veh TMPRSS6 (11731388_a_at) / RFU KRTAP10-2 (11738614_at) / Fold change /veh KRTAP10-2 (11738614_at) / RFU ARHGAP8 /// PRR5-ARHGAP8 (11727945_x_at) / Fold change /veh ARHGAP8 /// PRR5-ARHGAP8 (11727945_x_at) / RFU KRTAP5-7 /// NADSYN1 (11734609_at) / Fold change /veh KRTAP5-7 /// NADSYN1 (11734609_at) / RFU RASL12 (11751679_a_at) / Fold change /veh RASL12 (11751679_a_at) / RFU CDKN2B (11736163_a_at) / Fold change /veh CDKN2B (11736163_a_at) / RFU PRF1 (11729649_at) / Fold change /veh PRF1 (11729649_at) / RFU, ZNF638 /// ZNF638-IT1 / Fold change vs veh, ZNF638 /// ZNF638-IT1 / RFU, PANK3 / Fold change vs veh, PANK3 / RFU, SH3YL1 / Fold change vs veh, SH3YL1 / RFU, ZEB2 / Fold change vs veh, ZEB2 / RFU, NRIP1 / Fold change vs veh, NRIP1 / RFU, PTTG1IP / Fold change vs veh, PTTG1IP / RFU, CAPN2 / Fold change vs veh, CAPN2 / RFU, MED14 / Fold change vs veh, MED14 / RFU, SNORA58 / Fold change vs veh, SNORA58 / RFU, C1orf63 / Fold change vs veh, C1orf63 / RFU, LRRFIP1 / Fold change vs veh, LRRFIP1 / RFU, NDUFAF7 / Fold change vs veh, NDUFAF7 / RFU, SLC12A2 / Fold change vs veh, SLC12A2 / RFU, IBTK / Fold change vs veh, IBTK / RFU, ESF1 / Fold change vs veh, ESF1 / Fold change vs veh, TMEM50B / RFU, TAOK1 / Fold change vs veh, TAOK1 / RFU, ACBD3 / Fold change vs veh, ACBD3 / RFU, TMA16 / Fold change vs veh, TMA16 / RFU, RWDD3 / Fold change vs veh, RWDD3 / RFU, BCAT1 / Fold change vs veh, BCAT1 / RFU, EDEM3 / Fold change vs veh, EDEM3 / RFU, TMEM33 / Fold change vs veh, TMEM33 / RFU, WDR75 / Fold change vs veh, WDR75 / RFU, AHCTF1 / Fold change vs veh, AHCTF1 / RFU, TFRC / Fold change vs veh, TFRC / RFU, ZDHHC17 / Fold change vs veh, ZDHHC17 / RFU, NOM1 / Fold change vs veh, NOM1 / RFU, ARL8B / Fold change vs veh, ARL8B / RFU, ZBTB11 / Fold change vs veh, ZBTB11 / RFU, TAMM41 / Fold change vs veh, TAMM41 / RFU, KIAA1704 /// LOC100996395 / Fold change vs veh, KIAA1704 /// LOC100996395 / RFU, ING1 / Fold change vs veh, ING1 / RFU, TRMT61B / Fold change vs veh, TRMT61B / RFU, FUBP3 / Fold change vs veh, FUBP3 / RFU, TP53 / Fold change vs veh, TP53 / RFU, TNKS2 / Fold change vs veh, TNKS2 / RFU, ZFP14 / Fold change vs veh, ZFP14 / RFU, ACTR2 / Fold change vs veh, ACTR2 / RFU, PPP3R1 / Fold change vs veh, PPP3R1 / RFU, PIK3R1 / Fold change vs veh, PIK3R1 / RFU, HNRNPA1 / Fold change vs veh, HNRNPA1 / RFU, RNF170 / Fold change vs veh, RNF170 / RFU, ZNF28 / Fold change vs veh, ZNF28 / RFU, RNGTT / Fold change vs veh, RNGTT / RFU, OGT / Fold change vs veh, OGT / RFU, BRD1 / Fold change vs veh, BRD1 / RFU, MARS / Fold change vs veh, MARS / RFU, ZNF655 / Fold change vs veh, ZNF655 / RFU, FAHD1 / Fold change vs veh, FAHD1 / RFU, BDP1 / Fold change vs veh, BDP1 / RFU, LRRCC1 / Fold change vs veh, LRRCC1 / RFU, ARID1A / Fold change vs veh, ARID1A / RFU, ZNF146 / Fold change vs veh, ZNF146 / RFU, ZNF330 / Fold change vs veh, ZNF330 / RFU, GPN3 / Fold change vs veh, GPN3 / RFU, C9orf123 / Fold change vs veh, C9orf123 / RFU, N4BP2L2 / Fold change vs veh, N4BP2L2 / RFU, ARFIP1 / Fold change vs veh, ARFIP1 / RFU, FAM179B / Fold change vs veh, FAM179B / RFU, BCL10 / Fold change vs veh, BCL10 / RFU, UHRF1BP1L / Fold change vs veh, UHRF1BP1L / RFU, BET1 / Fold change vs veh, BET1 / RFU, CNOT2 / Fold change vs veh, CNOT2 / RFU, ZNF268 / Fold change vs veh, ZNF268 / Fold change vs veh, ZNF507 / RFU, DGCR2 / Fold change vs veh, DGCR2 / RFU, WDSUB1 / Fold change vs veh, WDSUB1 / Fold change vs veh, HSP90B1 /// MIR3652 / RFU, ADSS / Fold change vs veh, ADSS / RFU, GK / Fold change vs veh, GK / RFU, ZNF148 / Fold change vs veh, ZNF148 / RFU, TAF9 / Fold change vs veh, TAF9 / RFU, SLC1A5 / Fold change vs veh, SLC1A5 / RFU, SLMO2 / Fold change vs veh, SLMO2 / RFU, ABCC4 / Fold change vs veh, ABCC4 / RFU, LOC101060439 /// RAP1B / Fold change vs veh, LOC101060439 /// RAP1B / RFU, RFX7 / Fold change vs veh, RFX7 / RFU, GTPBP10 / Fold change vs veh, GTPBP10 / RFU, CNEP1R1 / Fold change vs veh, CNEP1R1 / RFU, BIVM-ERCC5 /// ERCC5 / Fold change vs veh, BIVM-ERCC5 /// ERCC5 / RFU, ILF3 / Fold change vs veh, ILF3 / RFU 11762660_at / Fold change /veh 11762660_at / RFU VCAN (11757783_s_at) / Fold change /veh VCAN (11757783_s_at) / RFU DDX43 (11728927_at) / Fold change /veh DDX43 (11728927_at) / RFU KRT8 (11758188_x_at) / Fold change /veh KRT8 (11758188_x_at) / RFU NKD1 (11759106_at) / Fold change /veh NKD1 (11759106_at) / RFU SRD5A1 (11742802_a_at) / Fold change /veh SRD5A1 (11742802_a_at) / RFU TPSAB1 /// TPSB2 (11721975_s_at) / Fold change /veh TPSAB1 /// TPSB2 (11721975_s_at) / RFU GSTM3 (11746129_a_at) / Fold change /veh GSTM3 (11746129_a_at) / RFU IL23R (11737362_x_at) / Fold change /veh IL23R (11737362_x_at) / RFU TMEM51 (11727254_a_at) / Fold change /veh TMEM51 (11727254_a_at) / RFU PIWIL2 (11732686_x_at) / Fold change /veh PIWIL2 (11732686_x_at) / RFU ORM1 (11744905_x_at) / Fold change /veh ORM1 (11744905_x_at) / RFU CCDC152 (11743942_at) / Fold change /veh CCDC152 (11743942_at) / RFU ECM1 (11717891_a_at) / Fold change /veh ECM1 (11717891_a_at) / RFU IL23R (11748794_a_at) / Fold change /veh IL23R (11748794_a_at) / RFU TNFAIP8L3 (11732012_x_at) / Fold change /veh TNFAIP8L3 (11732012_x_at) / RFU MBOAT4 (11741988_at) / Fold change /veh MBOAT4 (11741988_at) / RFU 11764193_at / Fold change /veh 11764193_at / RFU TMEM53 (11763286_at) / Fold change /veh TMEM53 (11763286_at) / RFU MAGEB2 (11727129_at) / Fold change /veh MAGEB2 (11727129_at) / RFU TMEM200A (11744735_a_at) / Fold change /veh TMEM200A (11744735_a_at) / RFU CCDC152 (11751479_a_at) / Fold change /veh CCDC152 (11751479_a_at) / RFU FAM211A (11726209_a_at) / Fold change /veh FAM211A (11726209_a_at) / RFU RGS16 (11746705_a_at) / Fold change /veh RGS16 (11746705_a_at) / RFU VCAN (11755009_s_at) / Fold change /veh VCAN (11755009_s_at) / RFU RHOB (11743442_s_at) / Fold change /veh RHOB (11743442_s_at) / RFU RGS16 (11720943_a_at) / Fold change /veh RGS16 (11720943_a_at) / RFU RGS16 (11720944_at) / Fold change /veh RGS16 (11720944_at) / RFU, VPS4B / Fold change vs veh, VPS4B / RFU, CREB1 / Fold change vs veh, CREB1 / RFU, DNAJC13 / Fold change vs veh, DNAJC13 / RFU, GNAQ / Fold change vs veh, GNAQ / RFU, CDK5R1 / Fold change vs veh, CDK5R1 / RFU, ZRANB3 / Fold change vs veh, ZRANB3 / RFU, CUL4A / Fold change vs veh, CUL4A / RFU, CCNY / Fold change vs veh, CCNY / RFU, UFL1 / Fold change vs veh, UFL1 / RFU, COG3 / Fold change vs veh, COG3 / RFU, DIAPH2 / Fold change vs veh, DIAPH2 / RFU, SKA2 / Fold change vs veh, SKA2 / RFU, AFF3 / Fold change vs veh, AFF3 / RFU, LMF1 / Fold change vs veh, LMF1 / RFU, IPO11 / Fold change vs veh, IPO11 / RFU, DFFB / Fold change vs veh, DFFB / RFU, FOXP1 / Fold change vs veh, FOXP1 / RFU, CARD8 / Fold change vs veh, CARD8 / RFU, STRN3 / Fold change vs veh, STRN3 / RFU, ADK / Fold change vs veh, ADK / RFU, RASSF2 / Fold change vs veh, RASSF2 / RFU, WIPF1 / Fold change vs veh, WIPF1 / RFU, LARP1B / Fold change vs veh, LARP1B / RFU, RASA1 / Fold change vs veh, RASA1 / RFU, RB1 / Fold change vs veh, RB1 / RFU, PPFIA1 / Fold change vs veh, PPFIA1 / RFU, MAT2A / Fold change vs veh, MAT2A / RFU, CCT5 / Fold change vs veh, CCT5 / RFU, WDR92 / Fold change vs veh, WDR92 / RFU, CUX1 / Fold change vs veh, CUX1 / RFU, TTC7A / Fold change vs veh, TTC7A / RFU, TMEM135 / Fold change vs veh, TMEM135 / RFU, DEPTOR / Fold change vs veh, DEPTOR / RFU, CPM / Fold change vs veh, CPM / RFU, DNAJB6 / Fold change vs veh, DNAJB6 / RFU, CACNA2D3 / Fold change vs veh, CACNA2D3 / RFU, DTX4 / Fold change vs veh, DTX4 / RFU, TFCP2 / Fold change vs veh, TFCP2 / RFU, GMCL1 /// GMCL1P1 / Fold change vs veh, GMCL1 /// GMCL1P1 / RFU, AEBP2 / Fold change vs veh, AEBP2 / RFU, SNHG1 /// SNORD22 /// SNORD25 /// SNORD26 /// SNORD27 /// SNORD28 /// SNORD29 /// SNORD31 / Fold change vs veh, SNHG1 /// SNORD22 /// SNORD25 /// SNORD26 /// SNORD27 /// SNORD28 /// SNORD29 /// SNORD31 / Fold change (Aza/veh), C12orf56 (ProbeSet 11735607_a_at) / Fold change (ACY-1035/veh), C12orf56 (ProbeSet 11735607_a_at) / Fold change (Aza/veh), FGFR1OP (ProbeSet 11751329_s_at) / Fold change (ACY-1035/veh), FGFR1OP (ProbeSet 11751329_s_at) / Fold change (Aza/veh), VPS36 (ProbeSet 11739960_a_at) / Fold change (ACY-1035/veh), VPS36 (ProbeSet 11739960_a_at) / RFU SYPL1 (11715823_x_at) / Fold change /veh SYPL1 (11715823_x_at) / RFU IGFBP7 (11715501_s_at) / Fold change /veh IGFBP7 (11715501_s_at) / RFU REEP3 (11722064_at) / Fold change /veh REEP3 (11722064_at) / RFU IGLL1 (11728026_x_at) / Fold change /veh IGLL1 (11728026_x_at): dose or concentration left out as unconfirmed
Conditions: MV-4-11 cells, 48 hours

## Nc1ccc(-c2cccs2)cc1NC(=O)c1ccc2c(c1)cc(C1CC1)n2CCN1CCOCC1 [ACY-1035]
  RFU TUBB4B (11761932_at): 19.33 RFU
